In patent US20240101576A1, “HETEROCYCLIC INHIBITORS OF EGFR AND/OR HER2, FOR USE IN THE TREATMENT OF CANCER” (Scorpion Therapeutics, Inc., priority 2020, published 2024):

How the values were obtained:
Assay type in all cases: cell-based
[1] = target: T1, EGFR L858R (Ba/F3 cells) (Homo sapiens, UniProt P00533, L858R); experiment: Inhibitor activity on EGFR-dependent cell growth (CellTiter-Glo, 72 h), Ba/F3 EGFR L858R; settings: read-out: BaF3 L858R IC50
T1 construct: expressed in transfected cells; host or cells: Ba/F3 (murine pro-B cells), retroviral transduction, puromycin selection, IL3-independent pool
Outline: (§1)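 Steps: seed Ba/F3 EGFR-mutant pools (800 cells/well FQEA and exon 19del; 600 L858R/C797S; 400 L858R). Add 120 nL of serially diluted compound and incubate 72 h. Equilibrate to room temperature, add CellTiter-Glo and read after 30 min. Fit IC50.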

[2] = target: T2, EGFR exon 19del (Ba/F3 cells) (Homo sapiens, UniProt P00533); experiment: Inhibitor activity on EGFR-dependent cell growth (CellTiter-Glo, 72 h), Ba/F3 EGFR exon 19del; settings: Ba/F3 EGFR exon 19del cell growth, read-out: BaF3 Del19 IC50
Outline: as §1

[3] = target: T3, EGFR L858R/C797S (Ba/F3 cells) (Homo sapiens, UniProt P00533, C797S/L858R); experiment: Inhibitor activity on EGFR-dependent cell growth (CellTiter-Glo, 72 h), Ba/F3 EGFR L858R/C797S; settings: read-out: BaF3 L858R/C797S IC50
T3 construct: expressed in transfected cells; host or cells: Ba/F3 (murine pro-B cells), retroviral transduction, puromycin selection, IL3-independent pool
Outline: as §1

[4] = target: T1, EGFR L858R (Ba/F3 cells); experiment: Inhibitor activity on EGFR phosphorylation (pEGFR AlphaLISA, 2 h), Ba/F3 EGFR L858R
Outline: (§2)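 Ba/F3 cells made IL3-independent by retroviral EGFR mutant expression (puromycin-selected, pooled) and CUTO14 cells were seeded at 50K or 12.5K cells/well, respectively. They were treated 2 h with a 3-fold, 10-point compound series, lysed, and phospho-EGFR was read by AlphaLISA to give IC50.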

[5] = target: T2, EGFR exon 19del (Ba/F3 cells); experiment: Inhibitor activity on EGFR phosphorylation (pEGFR AlphaLISA, 2 h), Ba/F3 EGFR exon 19del; settings: read-out: Del19 IC50 (pEGFR)
Outline: as §2

[6] = target: T3, EGFR L858R/C797S (Ba/F3 cells); experiment: Inhibitor activity on EGFR phosphorylation (pEGFR AlphaLISA, 2 h), Ba/F3 EGFR L858R/C797S
Outline: as §2

[7] = target: T4, EGFR WT (Ba/F3 cells) (Homo sapiens, UniProt P00533); experiment: Inhibitor activity on EGFR-dependent cell growth (CellTiter-Glo, 72 h), Ba/F3 EGFR WT; settings: read-out: BaF3 WT IC50
T4 construct: expressed in transfected cells; host or cells: Ba/F3 (murine pro-B cells), retroviral transduction, puromycin selection, maintained with EGF
Outline: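 This growth assay used Ba/F3 cells that depend on wild-type EGFR and are kept in EGF without IL3. Compounds were made up as 10 mM DMSO stocks and diluted 3-fold over 10 points. 120 nL went onto 600 cells/well. After 72 hours, 40 μL CellTiter-Glo was added and luminescence read on EnVision after 30 min.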

[8] = target: T5, EGFR exon 20 NPG Ins D770_N771 (Ba/F3 cells) (Homo sapiens, UniProt P00533, INS770NPG); experiment: Inhibitor activity on EGFR-dependent cell growth (CellTiter-Glo, 72 h), Ba/F3 EGFR exon 20 NPG Ins; settings: read-out: BaF3 NPG IC50
T5 construct: expressed in transfected cells; host or cells: Ba/F3 (murine pro-B cells), retroviral transduction, puromycin selection, IL3-independent pool
Outline: (§3)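 IC50s derive from a sigmoidal dose–response fit of CellTiter-Glo signal. The signal was normalised between […]-treated cells and cell-free medium. Ba/F3 mutant-EGFR cells, seeded at 400–800/well depending on the line, had 72 h of exposure to a 10-point, 3-fold compound series.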

[9] = target: T6, EGFR exon 20 ASV Ins V769_D770 (Ba/F3 cells) (Homo sapiens, UniProt P00533, INS769ASV); experiment: Inhibitor activity on EGFR-dependent cell growth (CellTiter-Glo, 72 h), Ba/F3 EGFR exon 20 ASV Ins; settings: read-out: BaF3 ASV IC50
T6 construct: expressed in transfected cells; host or cells: Ba/F3 (murine pro-B cells), retroviral transduction, puromycin selection, IL3-independent pool
Outline: as §3

[10] = target: T7, EGFR exon 20 SVD Ins D770_N771 (Ba/F3 cells) (Homo sapiens, UniProt P00533, INS770SVD); experiment: Inhibitor activity on EGFR-dependent cell growth (CellTiter-Glo, 72 h), Ba/F3 EGFR exon 20 SVD Ins; settings: read-out: BaF3 SVD IC50
T7 construct: expressed in transfected cells; host or cells: Ba/F3 (murine pro-B cells), retroviral transduction, puromycin selection, IL3-independent pool
Outline: as §3

[11] = target: T8, EGFR exon 20 FQEA Ins A763_V764 (Ba/F3 cells) (Homo sapiens, UniProt P00533, INS763FQEA); experiment: Inhibitor activity on EGFR-dependent cell growth (CellTiter-Glo, 72 h), Ba/F3 EGFR exon 20 FQEA Ins; settings: read-out: BaF3 FQEA IC50
T8 construct: expressed in transfected cells; host or cells: Ba/F3 (murine pro-B cells), retroviral transduction, puromycin selection, IL3-independent pool
Outline: as §1

[12] = target: T5, EGFR exon 20 NPG Ins D770_N771 (Ba/F3 cells); experiment: Inhibitor activity on EGFR phosphorylation (pEGFR AlphaLISA, 2 h), Ba/F3 EGFR exon 20 NPG Ins
Outline: as §2

[13] = target: T6, EGFR exon 20 ASV Ins V769_D770 (Ba/F3 cells); experiment: Inhibitor activity on EGFR phosphorylation (pEGFR AlphaLISA, 2 h), Ba/F3 EGFR exon 20 ASV Ins; settings: EGFR phosphorylation, AlphaLISA, 2 hours; read-out: ASV IC50 (pEGFR)
Outline: as §2

[14] = target: T7, EGFR exon 20 SVD Ins D770_N771 (Ba/F3 cells); experiment: Inhibitor activity on EGFR phosphorylation (pEGFR AlphaLISA, 2 h), Ba/F3 EGFR exon 20 SVD Ins
From the text: Example B. Inhibitor Activity on EGFR phosphorylation (pEGFR)
EGFR mutant Ba/F3 cells were generated by transduction with retrovirus containing vectors expressing EGFR L858R, EGFR exon 19del, EGFR L858R/C797S, EGFR exon 20 NPG Ins D770_N771, EGFR exon 20 ASV Ins V769_D770, or EGFR exon 20 SVD Ins D770_N771 genes along with a puromycin selection marker. Transduced cells are selected with puromycin for 7 days and are then be transferred into culture media without Interleukin 3 (IL3). Surviving cells are confirmed to express EGFR by Western blot and maintained as a pool. CUTO14 cells were obtained from Dr. Robert C. Doebele at the University of Colorado. The IC50 date are included in Table 6 and Table 7.
1.1 Cells are harvested from flask into cell culture medium and the cell number counted.
1.2 Cells are diluted with culture medium to the desired density and 40 μL of cell suspension is added into each well of 384-well cell culture plate and the seeding density is 50K cells/well (Ba/F3) or 12.5K cells/well (CUTO14).
2 Compound Preparation and Treatment
2.1 Test compounds are dissolved to 10 mM in a DMSO stock solution. 45 μL of stock solution is transferred to a 384 polypropylene plate (pp-plate). Perform 3-fold, 10-point dilution via transferring 15 μL compound into 30 μL DMSO using a TECAN (EVO200) liquid handler.
2.2 Spin plates at room temperature at 1,000 RPM for 1 minute.
2.3 Transfer 5 nL of diluted compound from compound source plate into the cell plate.
2.4 After compound treatment for 2 hours, perform pEGFR detection by AlphaLISA for compound treatment plates as described in “Detection” section.
3 Detection by pEGFR AlphaLISA (Perkin-Elmer)
3.1 Plates are removed from incubators and equilibrated at room temperature for 10 minutes, and media was removed
3.2 10 μL of lysis buffer is added and plates shaken at 600 rpm for 1 hr.
3.3 Prepare acceptor mix just before use and dispense 5 μL of acceptor mix to all the wells. Shake 350 rpm for Ihr in the dark
3.4 Prepare donor mix under low light conditions prior to use. Dispense 5 μL of donor mix to all the wells. Mix well on the shaker, seal and wrap in aluminum foil and incubate 1.5 hrs at room temperature in the dark
3.5 Transfer 18.5 μL mixture to OptiPlate 384, and read using an Envision. The IC50 date were included in Table 6 and Table 7.

[15] = target: EGFR (CUTO14 cells) (Homo sapiens, UniProt P00533); experiment: Inhibitor activity on EGFR phosphorylation (pEGFR AlphaLISA, 2 h), CUTO14 cells
Outline: as §2

T3 sequence (P00533 25-1210 C797S/L858R): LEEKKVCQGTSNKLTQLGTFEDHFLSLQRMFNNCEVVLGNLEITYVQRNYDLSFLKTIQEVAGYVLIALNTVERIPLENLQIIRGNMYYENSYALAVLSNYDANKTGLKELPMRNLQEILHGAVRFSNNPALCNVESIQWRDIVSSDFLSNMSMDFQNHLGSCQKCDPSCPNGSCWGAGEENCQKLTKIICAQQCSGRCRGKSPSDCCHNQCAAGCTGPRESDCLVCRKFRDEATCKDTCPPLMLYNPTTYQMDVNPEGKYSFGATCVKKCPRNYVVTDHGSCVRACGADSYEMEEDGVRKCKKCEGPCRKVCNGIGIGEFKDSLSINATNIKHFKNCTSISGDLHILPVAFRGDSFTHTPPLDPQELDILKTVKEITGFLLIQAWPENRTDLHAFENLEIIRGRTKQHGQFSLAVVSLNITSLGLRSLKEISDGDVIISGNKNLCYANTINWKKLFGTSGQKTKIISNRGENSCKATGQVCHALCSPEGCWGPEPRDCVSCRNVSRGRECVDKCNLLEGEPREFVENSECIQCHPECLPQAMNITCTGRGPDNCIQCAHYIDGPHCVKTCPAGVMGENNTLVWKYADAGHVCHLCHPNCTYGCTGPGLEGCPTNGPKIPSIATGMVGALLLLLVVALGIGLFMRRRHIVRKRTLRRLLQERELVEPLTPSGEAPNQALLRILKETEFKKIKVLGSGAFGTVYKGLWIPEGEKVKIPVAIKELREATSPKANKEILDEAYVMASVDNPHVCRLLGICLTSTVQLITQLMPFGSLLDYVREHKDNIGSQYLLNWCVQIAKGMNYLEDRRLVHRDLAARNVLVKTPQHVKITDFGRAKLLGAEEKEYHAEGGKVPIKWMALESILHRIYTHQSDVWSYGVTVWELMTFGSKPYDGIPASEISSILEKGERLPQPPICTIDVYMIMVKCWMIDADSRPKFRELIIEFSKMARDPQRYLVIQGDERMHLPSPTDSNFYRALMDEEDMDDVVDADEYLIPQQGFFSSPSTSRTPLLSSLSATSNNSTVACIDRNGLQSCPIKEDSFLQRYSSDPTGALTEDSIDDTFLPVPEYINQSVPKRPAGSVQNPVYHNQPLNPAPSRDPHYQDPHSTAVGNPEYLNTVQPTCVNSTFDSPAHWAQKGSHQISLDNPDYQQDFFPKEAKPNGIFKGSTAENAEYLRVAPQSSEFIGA
EGFR (CUTO14 cells), sequence (P00533 with tags, fused parts or gaps DUP767-769): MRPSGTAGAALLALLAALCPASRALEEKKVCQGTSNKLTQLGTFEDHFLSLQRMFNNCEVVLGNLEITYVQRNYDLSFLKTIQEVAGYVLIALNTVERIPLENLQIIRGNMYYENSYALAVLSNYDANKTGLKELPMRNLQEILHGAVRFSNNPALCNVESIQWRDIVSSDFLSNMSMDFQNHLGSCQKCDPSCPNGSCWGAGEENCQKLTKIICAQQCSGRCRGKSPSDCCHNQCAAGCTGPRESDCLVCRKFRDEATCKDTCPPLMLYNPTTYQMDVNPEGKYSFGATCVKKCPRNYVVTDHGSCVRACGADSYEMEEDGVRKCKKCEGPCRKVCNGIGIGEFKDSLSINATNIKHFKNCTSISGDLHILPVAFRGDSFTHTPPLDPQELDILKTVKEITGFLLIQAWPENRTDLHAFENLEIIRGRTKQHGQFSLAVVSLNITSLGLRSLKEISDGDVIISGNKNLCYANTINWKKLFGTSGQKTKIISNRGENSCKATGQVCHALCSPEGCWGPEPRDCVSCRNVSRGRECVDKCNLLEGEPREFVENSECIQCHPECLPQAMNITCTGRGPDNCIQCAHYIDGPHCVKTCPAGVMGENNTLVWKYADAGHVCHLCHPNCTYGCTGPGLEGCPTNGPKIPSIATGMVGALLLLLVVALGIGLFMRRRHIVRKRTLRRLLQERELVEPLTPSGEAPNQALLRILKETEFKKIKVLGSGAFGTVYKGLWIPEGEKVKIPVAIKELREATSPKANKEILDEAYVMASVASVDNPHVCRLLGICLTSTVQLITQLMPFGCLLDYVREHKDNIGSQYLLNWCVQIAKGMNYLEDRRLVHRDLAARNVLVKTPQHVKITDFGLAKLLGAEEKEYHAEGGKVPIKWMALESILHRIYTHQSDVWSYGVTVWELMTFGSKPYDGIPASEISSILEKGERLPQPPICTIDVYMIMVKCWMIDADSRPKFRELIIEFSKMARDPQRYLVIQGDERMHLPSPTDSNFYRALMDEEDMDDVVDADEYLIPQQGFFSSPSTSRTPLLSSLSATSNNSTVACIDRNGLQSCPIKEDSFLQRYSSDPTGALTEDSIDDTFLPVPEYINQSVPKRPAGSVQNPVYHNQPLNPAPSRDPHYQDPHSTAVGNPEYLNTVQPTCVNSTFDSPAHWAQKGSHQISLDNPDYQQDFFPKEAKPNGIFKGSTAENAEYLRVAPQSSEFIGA
T4 sequence (P00533 25-1210): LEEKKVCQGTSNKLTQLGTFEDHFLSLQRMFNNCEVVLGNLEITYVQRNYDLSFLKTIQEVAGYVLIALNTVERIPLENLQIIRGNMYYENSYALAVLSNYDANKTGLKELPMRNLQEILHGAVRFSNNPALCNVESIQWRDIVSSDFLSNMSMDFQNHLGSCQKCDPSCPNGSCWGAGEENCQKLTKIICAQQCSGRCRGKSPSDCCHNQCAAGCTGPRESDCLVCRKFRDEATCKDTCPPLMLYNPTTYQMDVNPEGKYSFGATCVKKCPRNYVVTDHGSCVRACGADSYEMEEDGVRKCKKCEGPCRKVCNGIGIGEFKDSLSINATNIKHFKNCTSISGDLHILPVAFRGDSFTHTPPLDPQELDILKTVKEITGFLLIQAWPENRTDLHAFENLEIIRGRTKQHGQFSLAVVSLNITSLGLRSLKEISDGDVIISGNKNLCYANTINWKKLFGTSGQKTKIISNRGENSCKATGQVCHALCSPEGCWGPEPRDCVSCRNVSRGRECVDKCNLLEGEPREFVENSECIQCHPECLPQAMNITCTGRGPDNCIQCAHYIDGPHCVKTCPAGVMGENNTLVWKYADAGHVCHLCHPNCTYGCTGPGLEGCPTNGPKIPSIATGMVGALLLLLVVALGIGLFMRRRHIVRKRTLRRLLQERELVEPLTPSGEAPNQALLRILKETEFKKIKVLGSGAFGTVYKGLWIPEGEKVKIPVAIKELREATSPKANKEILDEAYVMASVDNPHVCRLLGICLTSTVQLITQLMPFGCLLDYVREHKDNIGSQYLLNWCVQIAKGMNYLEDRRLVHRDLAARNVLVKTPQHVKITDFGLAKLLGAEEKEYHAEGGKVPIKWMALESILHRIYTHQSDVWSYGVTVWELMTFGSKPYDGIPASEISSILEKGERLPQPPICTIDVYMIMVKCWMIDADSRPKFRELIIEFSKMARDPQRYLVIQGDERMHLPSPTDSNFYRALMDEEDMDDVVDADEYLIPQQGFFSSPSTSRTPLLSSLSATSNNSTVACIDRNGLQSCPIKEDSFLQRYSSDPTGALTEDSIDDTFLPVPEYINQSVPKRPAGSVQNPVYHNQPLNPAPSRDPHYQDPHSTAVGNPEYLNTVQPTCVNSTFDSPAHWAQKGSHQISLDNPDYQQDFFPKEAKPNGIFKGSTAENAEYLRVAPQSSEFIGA
T7 sequence (P00533 with tags, fused parts or gaps INS770SVD): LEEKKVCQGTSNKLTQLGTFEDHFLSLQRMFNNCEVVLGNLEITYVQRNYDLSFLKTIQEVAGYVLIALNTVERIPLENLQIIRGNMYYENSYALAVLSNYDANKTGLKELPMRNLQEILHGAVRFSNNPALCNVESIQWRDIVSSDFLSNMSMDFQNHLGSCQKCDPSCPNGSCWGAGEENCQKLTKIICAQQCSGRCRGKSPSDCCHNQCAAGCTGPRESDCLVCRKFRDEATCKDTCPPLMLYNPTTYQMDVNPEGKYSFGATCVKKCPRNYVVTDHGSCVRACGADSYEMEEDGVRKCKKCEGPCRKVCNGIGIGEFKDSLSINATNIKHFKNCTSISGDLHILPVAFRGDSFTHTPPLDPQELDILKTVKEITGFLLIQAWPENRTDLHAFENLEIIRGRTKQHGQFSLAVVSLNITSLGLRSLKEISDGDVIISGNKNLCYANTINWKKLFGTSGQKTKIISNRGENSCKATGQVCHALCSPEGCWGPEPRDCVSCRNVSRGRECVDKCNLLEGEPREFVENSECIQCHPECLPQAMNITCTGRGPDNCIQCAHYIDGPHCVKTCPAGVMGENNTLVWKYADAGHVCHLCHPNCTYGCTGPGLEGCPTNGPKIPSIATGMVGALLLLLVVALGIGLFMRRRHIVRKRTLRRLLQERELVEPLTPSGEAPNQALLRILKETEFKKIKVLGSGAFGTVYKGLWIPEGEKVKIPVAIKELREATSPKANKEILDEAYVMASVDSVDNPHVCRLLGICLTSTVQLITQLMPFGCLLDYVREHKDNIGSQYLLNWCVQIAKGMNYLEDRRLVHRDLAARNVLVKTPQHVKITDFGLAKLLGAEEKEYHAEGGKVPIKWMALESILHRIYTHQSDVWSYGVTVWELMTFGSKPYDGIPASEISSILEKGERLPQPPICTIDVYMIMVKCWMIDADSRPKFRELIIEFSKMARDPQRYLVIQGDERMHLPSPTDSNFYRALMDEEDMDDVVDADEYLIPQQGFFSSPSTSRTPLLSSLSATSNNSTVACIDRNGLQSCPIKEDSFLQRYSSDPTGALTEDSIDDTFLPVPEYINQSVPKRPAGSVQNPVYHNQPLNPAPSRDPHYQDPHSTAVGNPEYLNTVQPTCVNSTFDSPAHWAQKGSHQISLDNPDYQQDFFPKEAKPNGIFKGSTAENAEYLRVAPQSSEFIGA

Compound	IC50 [1] [nM]	IC50 [2] [nM]	IC50 [3] [nM]	IC50 [4] [nM]	IC50 [5] [nM]	IC50 [6] [nM]	IC50 [7] [nM]	IC50 [8] [nM]	IC50 [9] [nM]	IC50 [10] [nM]	IC50 [11] [nM]	IC50 [12] [nM]	IC50 [13] [nM]	IC50 [14] [nM]	IC50 [15] [nM]
COc1c(F)cccc1Nc1c(-c2ccncc2F)[nH]c2c1C(=O)NCC2C[C@@H]1COCCO1 (single isomer, unassigned) [Compound 566]	< 100	< 100	< 100	< 100	< 100	< 100	< 100	< 100	< 100	< 100	< 100	< 100	< 100	< 100	< 100
COc1c(Cl)cccc1Nc1c(-c2ccnc3ccoc23)[nH]c2c1C(=O)NCC2 [compound 750, 3-[(3-chloro-2-methoxyphenyl)amino]-2-[furo[3,2-b]pyridin-7-yl]-1H,5H,6H,7H-pyrrolo[3,2-c]pyridin-4-one]	< 100	< 100	< 100	< 100	< 100	< 100	100 to 1000	< 100	–	–	< 100	< 100	< 100	< 100	< 100
COCC[C@H]1CNC(=O)c2c1[nH]c(-c1ccncc1F)c2Nc1cccc(Cl)c1OC [Compound 747]	< 100	< 100	< 100	< 100	< 100	< 100	< 100	< 100	–	–	< 100	< 100	< 100	< 100	< 100
COc1c(Cl)cccc1Nc1c(-c2ccncc2F)[nH]c2c1C(=O)NC[C@@H]2C[C@@H]1COCCO1 [Compound 482, (S)-7-(((R)-1,4-dioxan-2-yl)methyl)-3-((3-chloro-2-methoxyphenyl)amino)-2-(3-fluoropyridin-4-yl)-1,5,6,7-tetrahydro-4H-pyrrolo[3,2-c]pyridin-4-one]	< 100	< 100	< 100	< 100	< 100	< 100	< 100	< 100	–	–	< 100	< 100	< 100	< 100	< 100
COc1c(Cl)cccc1Nc1c(-c2ccnc(C)n2)[nH]c2c1C(=O)NC[C@@H]2CC1COCCO1 (stereo in doubt) [Compound 551, (7S)-3-[(3-chloro-2-methoxyphenyl)amino]-7-[(2R)-1,4-dioxan-2-ylmethyl]-2-(2-methylpyrimidin-4-yl)-1H,5H,6H,7H-pyrrolo[3,2-c]pyridin-4-one]	< 100	< 100	< 100	< 100	< 100	< 100	100 to 1000	< 100	–	–	100 to 1000	< 100	< 100	< 100	< 100
COc1c(Cl)cccc1Nc1c(-c2ccncc2F)[nH]c2c1C(=O)NC[C@@H]2C[C@H]1COCCO1 [Compound 481, (7S)-3-[(3-chloro-2-methoxyphenyl)amino]-7-[(2S)-1,4-dioxan-2-ylmethyl]-2-(3-fluoropyridin-4-yl)-1H,5H,6H,7H-pyrrolo[3,2-c]pyridin-4-one]	< 100	< 100	< 100	< 100	< 100	< 100	100 to 1000	< 100	–	–	< 100	< 100	< 100	< 100	< 100
COc1c(Cl)cccc1Nc1c(-c2ccnc(C)n2)[nH]c2c1C(=O)NC[C@H]2C[C@@H]1COCCO1 (single isomer, unassigned) [Compound 570]	< 100	< 100	< 100	< 100	< 100	< 100	100 to 1000	< 100	–	–	< 100	< 100	< 100	< 100	< 100
